The values below come from ChEMBL document CHEMBL4513139, “CO-ADD screening of University of Strathclyde (UK) compounds”.

≈ marks a conversion by molar mass, not a printed value.

For one test, the system named is Staphylococcus aureus. The test can be described thus: microbe, parasite or virus in culture. To be noted: ATCC 43300, 18 h, ASSAY_TEST Inhibition of Bacterial Growth, detection method Absorption (OD600), MEDIA CAMHB, plate type 384well, NBS, CORNING #3640.
A further test relates to Candida albicans. The test can be described thus: microbe, parasite or virus in culture. Particulars: ATCC 90028, ASSAY_TEST Inhibition of Fungal Growth, detection method Absorption (OD530), plate type 384well, NBS, CORNING #3640.
The test system of a further test is HEK293. The test can be described thus: cells. The format is functional, Homo sapiens, ATCC CRL1573. Particulars: Homo sapiens, ATCC CRL1573, HEK293; ASSAY_TEST Inhibition of Cell Viability; detection method Resazurin; Fluorescence (ex560/em590); MEDIA DMEM with 10% FBS; plate type 384well; TC; CORNING #3712; time 18 hr; read-out: CC50. Background: Resazurin is reduced to fluorescent resorufin, in cell work by metabolically active cells.

For another test, the system named is Acinetobacter baumannii. The test can be described thus: microbe, parasite or virus in culture. Particulars: ATCC 19606, 18 h, ASSAY_TEST Inhibition of Bacterial Growth, detection method Absorption (OD600), MEDIA CAMHB, plate type 384well, NBS, CORNING #3640.
Another test concerns Escherichia coli. The experiment in a line: microbe, parasite or virus in culture. Particulars: ATCC 25922, 18 h, ASSAY_TEST Inhibition of Bacterial Growth, detection method Absorption (OD600), MEDIA CAMHB, plate type 384well, NBS, CORNING #3640.
The next test has as its system Pseudomonas aeruginosa. The test can be described thus: microbe, parasite or virus in culture. To be noted: ATCC 27853, 18 h, ASSAY_TEST Inhibition of Bacterial Growth, detection method Absorption (OD600), MEDIA CAMHB, plate type 384well, NBS, CORNING #3640.
The test system of the next test is Klebsiella pneumoniae. The experiment in a line: microbe, parasite or virus in culture. To be noted: ATCC 700603, 18 h, ASSAY_TEST Inhibition of Bacterial Growth, detection method Absorption (OD600), MEDIA CAMHB, plate type 384well, NBS, CORNING #3640.

Description for Acinetobacter baumannii: Antibacterial activity against Acinetobacter baumannii ATCC 19606 (CO-ADD:GN_034); MIC in CAMBH media using NBS plates, by OD600
Description for Candida albicans: Antifungal activity against Candida albicans ATCC 90028 (CO-ADD:FG_001); MIC in YNB media using NBS plates, by OD630
Description for Cryptococcus neoformans: Antifungal activity against Cryptococcus neoformans H99 ATCC 208821 (CO-ADD:FG_002); MIC in YNB media using NBS plates, by Resazurin OD(600-570)
Description for Escherichia coli: Antibacterial activity against Escherichia coli ATCC 25922 (CO-ADD:GN_001); MIC in CAMBH media using NBS plates, by OD(600)
Description for Klebsiella pneumoniae: Antibacterial activity against Klebsiella pneumoniae MDR ATCC 70063 (CO-ADD:GN_003); MIC in CAMBH media using NBS plates, by OD(600)
Description for Pseudomonas aeruginosa: Antibacterial activity against Pseudomonas aeruginosa ATCC 27853 (CO-ADD:GN_042); MIC in CAMBH media using NBS plates, by OD(600)
Description for Staphylococcus aureus: Antibacterial activity against Staphylococcus aureus MRSA ATCC 43300 (CO-ADD:GP_020); MIC in CAMBH media, using NBS plates, by OD(600)

One may read the CC50 as the concentration giving 50% cytotoxicity. As for `COc1ccc(/C=C/c2ccc(C(=O)Nc3cc(C(=O)Nc4cc(C(=O)NCCN5CCC(O)CC5)n(C)c4)n(C)c3)cn2)cc1.O=C(O)C(F)(F)F.O=C(O)C(F)(F)F`, the MIC with Staphylococcus aureus, against Candida albicans, in the test with Acinetobacter baumannii, against Escherichia coli, with Pseudomonas aeruginosa and against Cryptococcus neoformans was above 32 µg/mL throughout. Moreover, the MIC against Klebsiella pneumoniae was above 32 µg/mL. In the test with HEK293, the CC50 is above 32 µg/mL.

As to `COCCOC1CCN(C(=O)c2cc(NC(=O)c3cc(NC(=O)c4ccc(/C=C/c5ccc(OC)cc5)nc4)cn3C)cn2C)CC1.O=S(=O)(O)O`, the MIC with Staphylococcus aureus, against Candida albicans, in the test on Acinetobacter baumannii, against Escherichia coli, against Pseudomonas aeruginosa and against Cryptococcus neoformans was above 32 µg/mL in each case. For the same compound, the MIC against Klebsiella pneumoniae was above 32 µg/mL. The CC50 in the test on HEK293 was determined as 15.5 µg/mL.

Turning to `COC(=O)CCC(=O)Nc1cc(C(=O)Nc2cc(C(=O)Nc3nc(C(=O)NCCCN(C)C)c(CCC(C)C)s3)n(C)c2)n(C)c1`, the MIC against Staphylococcus aureus, with Candida albicans, in the test with Acinetobacter baumannii, against Escherichia coli, in the test with Pseudomonas aeruginosa and with Cryptococcus neoformans was above 32 µg/mL in each case. Also, in the test with Klebsiella pneumoniae, the MIC is above 32 µg/mL. Further, the CC50 in the test on HEK293 is above 32 µg/mL.

For the compound `COc1cccc(/C=C/c2ccc(C(=O)Nc3cc(C(=O)Nc4cc(C(=O)NCCN5CCCCC5)n(CCCc5ccccc5)c4)n(C)c3)cc2)c1.O=C(O)C(F)(F)F`, the MIC against Staphylococcus aureus, in the test on Candida albicans, in the test with Acinetobacter baumannii, against Escherichia coli, in the test on Pseudomonas aeruginosa and against Cryptococcus neoformans was above 32 µg/mL throughout. In addition, the MIC against Klebsiella pneumoniae is above 32 µg/mL. The CC50 with HEK293 is 16 µg/mL.

Turning to `CC(C)n1cc(NC(=O)c2cc(NC(=O)c3ccc(/C=C/c4cnc5ccccc5c4)cc3)cn2C)cc1C(=O)NCCN1CCOCC1.O=C(O)C(F)(F)F.O=C(O)C(F)(F)F`, the MIC against Staphylococcus aureus was 1 µg/mL; in the test with Candida albicans it was 32 µg/mL; in the test on Acinetobacter baumannii, above 32 µg/mL; with Escherichia coli, above 32 µg/mL; in the test on Pseudomonas aeruginosa, above 32 µg/mL; with Cryptococcus neoformans it was 16 µg/mL. Also, the MIC against Klebsiella pneumoniae is above 32 µg/mL. Further, the CC50 with HEK293 was determined as 2.81 µg/mL.

As to `CC(=N)Nc1cc(C(=O)Nc2cc(C(=O)Nc3cc(C(=O)NCCCN(C)C)n(C)c3)n(C)c2)n(C)c1.O=C(O)C(F)(F)F.O=C(O)C(F)(F)F`, the MIC against Staphylococcus aureus, against Candida albicans, with Acinetobacter baumannii, in the test on Escherichia coli, against Pseudomonas aeruginosa and with Cryptococcus neoformans was above 32 µg/mL in each case. In addition, the MIC in the test on Klebsiella pneumoniae is above 32 µg/mL. The CC50 in the test on HEK293 is above 32 µg/mL.

Regarding `CC(C)CCn1cc(NC(=O)c2cc(NC(=O)c3cc(NC(=N)c4cnc5ccccc5c4)cn3C)cn2C)cc1C(=O)NCCCN(C)C.O=C(O)C(F)(F)F.O=C(O)C(F)(F)F`, the MIC against Staphylococcus aureus was 32 µg/mL; with Candida albicans, above 32 µg/mL; against Acinetobacter baumannii, above 32 µg/mL; in the test with Escherichia coli, 32 µg/mL; with Pseudomonas aeruginosa it was above 32 µg/mL; in the test with Cryptococcus neoformans it was 8 µg/mL. This compound also returned an MIC against Klebsiella pneumoniae above 32 µg/mL. Also, the half-maximal cytotoxic concentration (CC50) in the test with HEK293 is 11.6 µg/mL.

For the compound `CC(C)c1sc(NC(=O)c2cc(NC(=O)c3cc(NC(=O)c4cc5ccccc5cn4)cn3C)cn2C)nc1C(=O)NCCN1CCOCC1.O=C(O)C(F)(F)F`, the MIC is above 32 µg/mL against Staphylococcus aureus; above 32 µg/mL against Candida albicans; above 32 µg/mL in the test with Acinetobacter baumannii; above 32 µg/mL against Escherichia coli; above 32 µg/mL in the test with Pseudomonas aeruginosa; 32 µg/mL in the test with Cryptococcus neoformans. This compound displayed an MIC against Klebsiella pneumoniae above 32 µg/mL. Besides, the CC50 with HEK293 was above 32 µg/mL.

As for `COc1cccc(/C=C/c2ccc(C(=O)Nc3cc(C(=O)Nc4cc(C(=O)NCCN5CCOCC5)n(C(C)C)c4)n(C)c3)cc2)c1.O=C(O)C(F)(F)F`, the MIC in the test with Staphylococcus aureus, with Candida albicans, in the test with Acinetobacter baumannii, against Escherichia coli, against Pseudomonas aeruginosa and with Cryptococcus neoformans was above 32 µg/mL each time. In the test with Klebsiella pneumoniae, this compound showed an MIC above 32 µg/mL. The CC50 with HEK293 came to 4.31 µg/mL.

Take `CN(C)CCCNC(=O)c1cc(NC(=O)c2cc(NC(=O)c3cc(NC(=N)c4cc5ccccc5cn4)cn3C)cn2C)cn1C.O=C(O)C(F)(F)F.O=C(O)C(F)(F)F`: the MIC against Staphylococcus aureus was above 32 µg/mL; in the test with Candida albicans, 32 µg/mL; against Acinetobacter baumannii, above 32 µg/mL; in the test with Escherichia coli, above 32 µg/mL; against Pseudomonas aeruginosa, above 32 µg/mL; against Cryptococcus neoformans, 8 µg/mL. In the test on Klebsiella pneumoniae, this compound registered an MIC above 32 µg/mL. For the same compound, in the test on HEK293, the CC50 is above 32 µg/mL.

As to `CC(C)CCn1cc(NC(=O)c2cc(NC(=O)c3cc(NC(=N)N)cn3C)cn2C)cc1C(=O)NCCCN(C)C.O=C(O)C(F)(F)F.O=C(O)C(F)(F)F`, the MIC with Staphylococcus aureus is above 32 µg/mL; in the test on Candida albicans, above 32 µg/mL; in the test with Acinetobacter baumannii it was above 32 µg/mL; with Escherichia coli it was above 32 µg/mL; in the test with Pseudomonas aeruginosa, above 32 µg/mL; against Cryptococcus neoformans, 32 µg/mL. Further, in the test with Klebsiella pneumoniae, the MIC is above 32 µg/mL. Further, the CC50 with HEK293 was above 32 µg/mL.

On to `CC(=O)Nc1cc(C(=O)Nc2cc(C(=O)NCCC(=N)N)n(C)c2)n(C)c1.O=C(O)C(F)(F)F`, for which the MIC against Staphylococcus aureus, against Candida albicans, against Acinetobacter baumannii, in the test on Escherichia coli, against Pseudomonas aeruginosa and in the test on Cryptococcus neoformans was above 32 µg/mL in each case. In the test on Klebsiella pneumoniae, this compound registered an MIC above 32 µg/mL. Besides, the CC50 in the test on HEK293 was above 32 µg/mL.

In the case of `COc1cccc(C(=N)Nc2cc(C(=O)Nc3cc(C(=O)Nc4nc(C(=O)NCCCN(C)C)c(CCC(C)C)s4)n(C)c3)n(C)c2)c1.O=C(O)C(F)(F)F.O=C(O)C(F)(F)F`, the MIC against Staphylococcus aureus was 2 µg/mL; against Candida albicans it was above 32 µg/mL; against Acinetobacter baumannii it was above 32 µg/mL; against Escherichia coli, 32 µg/mL; in the test on Pseudomonas aeruginosa, above 32 µg/mL; against Cryptococcus neoformans, 2 µg/mL. Further, the MIC against Klebsiella pneumoniae was above 32 µg/mL. Besides, the half-maximal cytotoxic concentration (CC50) with HEK293 is above 32 µg/mL.

Regarding `COc1ccc(/C=C/c2ccc(C(=O)Nc3cc(C(=O)Nc4cc(C(=O)NCCN5CCC(OC)CC5)n(C)c4)n(C)c3)cn2)cc1.O=C(O)C(F)(F)F.O=C(O)C(F)(F)F`, the MIC was 1 µg/mL against Staphylococcus aureus; above 32 µg/mL in the test with Candida albicans; above 32 µg/mL against Acinetobacter baumannii; above 32 µg/mL in the test on Escherichia coli; above 32 µg/mL against Pseudomonas aeruginosa; above 32 µg/mL against Cryptococcus neoformans. The MIC against Klebsiella pneumoniae is above 32 µg/mL. For the same compound, the CC50 in the test with HEK293 was found to be 2.7 µg/mL.

For the compound `CC(C)CCc1sc(NC(=O)c2cc(NC(=O)c3cc(NC(=O)c4sc(N)nc4C(F)(F)F)cn3C)cn2C)nc1C(=O)NCCCN(C)C.O=C(O)C(F)(F)F`, the MIC in the test on Staphylococcus aureus was 8 µg/mL; against Candida albicans, above 32 µg/mL; against Acinetobacter baumannii, above 32 µg/mL; with Escherichia coli it was above 32 µg/mL; against Pseudomonas aeruginosa, above 32 µg/mL; in the test with Cryptococcus neoformans, above 32 µg/mL. Moreover, in the test on Klebsiella pneumoniae, the MIC was above 32 µg/mL. For the same compound, the CC50 in the test with HEK293 turned out to be 2.48 µg/mL.

With `Cn1cc(NC(=O)c2cc(NC(=O)c3ccc(/C=C/c4ccc(F)cc4)cc3)cn2C)cc1C(=O)NCCN1CCOCC1.O=C(O)C(F)(F)F`, the MIC in the test with Staphylococcus aureus, in the test on Candida albicans, with Acinetobacter baumannii, against Escherichia coli, in the test on Pseudomonas aeruginosa and against Cryptococcus neoformans was above 32 µg/mL in each case. The same compound registered an MIC in the test on Klebsiella pneumoniae above 32 µg/mL. Further, the CC50 with HEK293 is above 32 µg/mL.

In the case of `Cc1ncc(Cn2cc(CCOS(C)(=O)=O)nn2)c(N)n1`, the MIC with Staphylococcus aureus is above 32 µg/mL; in the test with Candida albicans it was 1 µg/mL (≈ 3.2 µM); in the test on Acinetobacter baumannii, above 32 µg/mL; in the test on Escherichia coli, above 32 µg/mL; in the test with Pseudomonas aeruginosa, above 32 µg/mL; against Cryptococcus neoformans, 2 µg/mL (≈ 6.4 µM). For the same compound, the MIC in the test on Klebsiella pneumoniae was above 32 µg/mL. Moreover, the CC50 in the test on HEK293 is above 32 µg/mL.

In the case of `CC(C)n1cc(NC(=O)c2cc(NC=O)cn2C)cc1C(=O)Nc1cc(C(=O)NCCCN(C)C)n(C)c1.O=C(O)C(F)(F)F`, the MIC with Staphylococcus aureus, against Candida albicans, in the test with Acinetobacter baumannii, against Escherichia coli, in the test with Pseudomonas aeruginosa and against Cryptococcus neoformans was above 32 µg/mL in each case. For the same compound, the MIC against Klebsiella pneumoniae is above 32 µg/mL. Moreover, the CC50 in the test on HEK293 was above 32 µg/mL.

As to `Cn1cc(NC(=O)c2cc(NC(=O)C(C)(C)C)cn2C)cc1C(=O)NCCC(=N)N.O=C(O)C(F)(F)F`, the MIC with Staphylococcus aureus, in the test on Candida albicans, with Acinetobacter baumannii, with Escherichia coli, against Pseudomonas aeruginosa and in the test on Cryptococcus neoformans was above 32 µg/mL each time. In the test with Klebsiella pneumoniae, this compound gave an MIC above 32 µg/mL. The CC50 in the test with HEK293 came to 12.3 µg/mL.

Take `Cn1cc(NC(=O)c2cc(NC(=O)c3ccc(/C=C/c4ccc5ccccc5c4)cc3)cn2C)cc1C(=O)NCCN1CCOCC1.O=C(O)C(F)(F)F`: the MIC against Staphylococcus aureus was above 32 µg/mL; against Candida albicans, 16 µg/mL; against Acinetobacter baumannii, above 32 µg/mL; against Escherichia coli, above 32 µg/mL; with Pseudomonas aeruginosa, above 32 µg/mL; against Cryptococcus neoformans it was above 32 µg/mL. Further, the MIC against Klebsiella pneumoniae is above 32 µg/mL. The CC50 in the test with HEK293 was above 32 µg/mL.
